Measured values published in patent US5962314A, “Calcium receptor-active molecules” (priority 1997, dated 1999).

Legend:
calcitonin = calcitonin levels in rats; type: in vivo, rat; settings: NPS R-568 p.o.
[1] = molecular target: T1, parathyroid cell calcium receptor (Bos taurus, UniProt P35384); experiment: Cl- current in Xenopus oocytes injected with bovine parathyroid cell mRNA; type: cell-based; design: Whole pieces of gland were used to prepare mRNA that directs the expression of the calcium receptor in Xenopus oocytes; expressed in transfected cells; host or cells: Xenopus laevis oocytes injected with parathyroid poly(A)+ mRNA; settings: oocytes expressing parathyroid calcium receptor; fendiline 100 μM
T1 sequence (P35384 20-1085): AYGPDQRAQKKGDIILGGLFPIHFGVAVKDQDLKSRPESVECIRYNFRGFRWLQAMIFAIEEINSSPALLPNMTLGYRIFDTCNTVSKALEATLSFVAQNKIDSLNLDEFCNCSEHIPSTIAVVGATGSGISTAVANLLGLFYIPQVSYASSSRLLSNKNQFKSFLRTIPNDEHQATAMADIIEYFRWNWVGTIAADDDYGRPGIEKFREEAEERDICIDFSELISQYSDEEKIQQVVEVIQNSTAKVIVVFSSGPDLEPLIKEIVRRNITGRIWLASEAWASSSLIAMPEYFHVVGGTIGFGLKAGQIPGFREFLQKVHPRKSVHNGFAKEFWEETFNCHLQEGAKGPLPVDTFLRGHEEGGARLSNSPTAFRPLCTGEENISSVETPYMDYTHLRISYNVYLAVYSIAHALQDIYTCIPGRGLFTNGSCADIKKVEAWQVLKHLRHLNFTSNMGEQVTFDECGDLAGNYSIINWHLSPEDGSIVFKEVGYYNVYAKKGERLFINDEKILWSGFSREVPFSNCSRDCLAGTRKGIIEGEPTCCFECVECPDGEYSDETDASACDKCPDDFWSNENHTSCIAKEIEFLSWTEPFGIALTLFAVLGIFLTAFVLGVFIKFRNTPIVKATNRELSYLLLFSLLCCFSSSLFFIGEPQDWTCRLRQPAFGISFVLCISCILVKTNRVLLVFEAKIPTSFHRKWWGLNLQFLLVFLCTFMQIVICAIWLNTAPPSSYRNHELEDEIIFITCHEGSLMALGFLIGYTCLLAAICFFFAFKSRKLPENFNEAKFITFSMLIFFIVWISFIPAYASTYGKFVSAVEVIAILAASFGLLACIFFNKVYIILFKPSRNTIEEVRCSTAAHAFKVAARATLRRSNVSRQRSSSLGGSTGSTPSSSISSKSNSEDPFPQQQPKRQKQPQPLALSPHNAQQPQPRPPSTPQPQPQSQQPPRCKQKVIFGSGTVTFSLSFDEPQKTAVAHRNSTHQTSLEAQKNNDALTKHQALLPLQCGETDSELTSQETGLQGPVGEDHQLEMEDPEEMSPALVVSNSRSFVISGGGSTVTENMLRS
Description: Following incubation, an oocyte was placed into a 100-μl plastic chamber and superfused with MBS at a flow rate of 0.5 ml/min using a peristaltic pump. Test molecules or inorganic polycations were added by rapidly moving the tubing into different buffers. Recording and current-passing electrodes were constructed from thin-wall capillary tubing pulled to a resistance of 1-3 Mohms and filled with 3 M KCl. […] Currents were recorded directly onto a strip chart recorder.

Structure (SMILES): COc1cccc([C@@H](C)NCCCc2ccccc2Cl)c1 [NPS R-568, (R)-(+)-N-[3-(2-chlorophenyl)propyl]-α-methyl-3-methoxybenzylamine]
- effect on calcitonin, oral (calcitonin): increase in calcitonin
- effect on Cl- current / intracellular Ca2+ [1]: potent molecule active on Xenopus oocytes expressing the parathyroid cell calcium receptor
